Our source for the Ki and EC50 values is ChEMBL document CHEMBL1133255 (Bioorg Med Chem Lett, 2000).

Assay [1] addresses 5-hydroxytryptamine receptor 1B (Homo sapiens, UniProt P28222). As to the kind of experiment: Binding affinity towards cloned human 5-hydroxytryptamine 1B receptor.
For the next assay, the species on record is Oryctolagus cuniculus. The assay can be described thus: The compound was tested for its […] activity using rabbit saphenous vein (RSV) preparation. The format is functional.
The target of assay [2] is 5-hydroxytryptamine receptor 1D (Homo sapiens, UniProt P28221). As to the kind of experiment: Binding affinity for human 5-hydroxytryptamine 1D receptor.
Sequence of 5-hydroxytryptamine receptor 1D (P28221 whole entry): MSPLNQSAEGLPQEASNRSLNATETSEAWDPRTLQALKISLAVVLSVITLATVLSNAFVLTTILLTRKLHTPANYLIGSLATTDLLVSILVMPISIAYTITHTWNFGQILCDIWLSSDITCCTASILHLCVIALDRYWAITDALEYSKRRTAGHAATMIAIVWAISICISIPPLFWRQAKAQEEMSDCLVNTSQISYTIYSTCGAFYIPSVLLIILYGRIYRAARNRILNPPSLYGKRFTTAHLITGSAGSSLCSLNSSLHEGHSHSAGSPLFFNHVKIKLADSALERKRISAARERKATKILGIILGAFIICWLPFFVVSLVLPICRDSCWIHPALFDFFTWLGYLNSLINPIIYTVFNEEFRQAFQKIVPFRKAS

Sequence of 5-hydroxytryptamine receptor 1B (P28222 whole entry): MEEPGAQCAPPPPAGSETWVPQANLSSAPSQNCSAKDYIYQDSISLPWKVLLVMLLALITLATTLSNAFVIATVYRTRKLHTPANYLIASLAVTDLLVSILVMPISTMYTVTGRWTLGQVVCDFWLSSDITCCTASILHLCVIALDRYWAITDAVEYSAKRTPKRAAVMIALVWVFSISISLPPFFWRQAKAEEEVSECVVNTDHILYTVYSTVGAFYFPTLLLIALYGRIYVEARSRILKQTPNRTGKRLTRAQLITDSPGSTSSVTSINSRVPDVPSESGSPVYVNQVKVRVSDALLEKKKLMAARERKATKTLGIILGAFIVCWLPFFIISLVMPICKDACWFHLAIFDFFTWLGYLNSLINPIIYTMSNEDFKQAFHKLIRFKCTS

For the molecule `CC(C)c1ccc2[nH]cc(C[C@H]3CCCN3C)c2c1`, the figures for the Ki in assay [1] and in assay [2] were 10.4 nM and 0.29 nM, respectively. In the assay filed under Oryctolagus cuniculus, this molecule came in with an EC50 of 28.6 nM.

As to `CCc1ccc2[nH]cc(CCN3CCCC3)c2c1`, the figures for the Ki in assay [1] and in assay [2] were 1620 nM and 45 nM, respectively.

Consider `CC(C)c1ccc2[nH]cc(CCN3CCCC3)c2c1`, for which the Ki in assay [1] amounted to 472 nM; in assay [2] it was 5.3 nM. In the assay filed under Oryctolagus cuniculus, this molecule had an EC50 of 440 nM.

With `CC(C)c1ccc2[nH]cc(CCN(C)C)c2c1`, the Ki in assay [1] stood at 14.2 nM; in assay [2] it was 0.4 nM.

Turning to `Cc1ccc2[nH]cc(C[C@H]3CCCN3C)c2c1`, the Ki in assay [1] was determined as 118 nM; in assay [2], 3.5 nM. This molecule also showed an EC50 in the assay filed under Oryctolagus cuniculus of 102 nM.

Regarding `Cn1cc(CCN)c2cc(C(C)(C)C)ccc21`, the Ki in assay [2] came to 0.45 nM.

`CCc1ccc2[nH]cc(C[C@H]3CCCN3C)c2c1`: the results for the Ki in assay [1] and in assay [2] were 47 nM and 0.97 nM, respectively. In addition, the half-maximal effective concentration (EC50) in the assay listed under Oryctolagus cuniculus stood at 14.7 nM.

With `CN1CCC[C@@H]1Cc1c[nH]c2ccc(C(C)(C)C)cc12`, the Ki in assay [1] was 15.5 nM; in assay [2] it was 0.25 nM. The EC50 in the assay listed under Oryctolagus cuniculus stood at 51.8 nM.

As for `CC(C)(C)c1ccc2[nH]cc(CCN3CCCC3)c2c1`, the Ki in assay [1] was 312 nM; in assay [2], 2.5 nM. The molecule further displayed an EC50 in the assay filed under Oryctolagus cuniculus of 1170 nM.

For the molecule `CNS(=O)(=O)Cc1ccc2[nH]cc(CCN(C)C)c2c1`, in the assay listed under Oryctolagus cuniculus, a half-maximal effect (EC50) was put at 174 nM.

In the assay filed under Oryctolagus cuniculus, `CCc1ccc2[nH]cc(CCN(C)C)c2c1` yielded an EC50 of 350 nM. This molecule also showed an inhibitory constant (Ki) in assay [2] of 16 nM.

Broadly, the Ki is a dissociation constant, usually derived from enzyme kinetics or from competition with a known ligand. Low values mean tighter binding, high ones weaker binding. What is called EC50 is the concentration needed to bring the measured effect to its halfway point. A higher EC50 goes with a need for much substance.
